Like-named read-outs stand apart in the source and are kept apart here. Where only a bound is given, the exact number is not on record here.

Holding throughout (experiment): KinomeScan kinase panel, single concentration 10 µM
What all share (assay type): binding

Test [1] deals with T1, KinomeScan kinase panel (Homo sapiens, UniProt O14730).
T1 construct: purchased DiscoveRx (KinomeScan)
T1 sequence (O14730 1-519): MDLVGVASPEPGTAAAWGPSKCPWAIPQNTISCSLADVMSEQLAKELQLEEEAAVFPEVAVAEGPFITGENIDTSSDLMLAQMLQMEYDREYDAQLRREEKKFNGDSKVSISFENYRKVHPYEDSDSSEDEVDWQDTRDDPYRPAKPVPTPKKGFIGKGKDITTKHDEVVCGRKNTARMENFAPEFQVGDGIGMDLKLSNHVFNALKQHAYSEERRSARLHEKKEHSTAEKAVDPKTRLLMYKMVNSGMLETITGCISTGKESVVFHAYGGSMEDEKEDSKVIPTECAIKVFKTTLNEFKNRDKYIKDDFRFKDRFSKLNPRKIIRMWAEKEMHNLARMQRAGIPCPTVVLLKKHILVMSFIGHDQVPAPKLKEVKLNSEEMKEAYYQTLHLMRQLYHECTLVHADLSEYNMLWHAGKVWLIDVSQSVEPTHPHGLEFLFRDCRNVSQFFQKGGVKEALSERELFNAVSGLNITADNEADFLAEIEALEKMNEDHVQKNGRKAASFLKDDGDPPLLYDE
To be noted: read-out: score (%).

Test [2] addresses T2, KinomeScan kinase panel (Homo sapiens, UniProt O15111).
T2 construct: purchased DiscoveRx (KinomeScan)
T2 sequence (O15111 1-745): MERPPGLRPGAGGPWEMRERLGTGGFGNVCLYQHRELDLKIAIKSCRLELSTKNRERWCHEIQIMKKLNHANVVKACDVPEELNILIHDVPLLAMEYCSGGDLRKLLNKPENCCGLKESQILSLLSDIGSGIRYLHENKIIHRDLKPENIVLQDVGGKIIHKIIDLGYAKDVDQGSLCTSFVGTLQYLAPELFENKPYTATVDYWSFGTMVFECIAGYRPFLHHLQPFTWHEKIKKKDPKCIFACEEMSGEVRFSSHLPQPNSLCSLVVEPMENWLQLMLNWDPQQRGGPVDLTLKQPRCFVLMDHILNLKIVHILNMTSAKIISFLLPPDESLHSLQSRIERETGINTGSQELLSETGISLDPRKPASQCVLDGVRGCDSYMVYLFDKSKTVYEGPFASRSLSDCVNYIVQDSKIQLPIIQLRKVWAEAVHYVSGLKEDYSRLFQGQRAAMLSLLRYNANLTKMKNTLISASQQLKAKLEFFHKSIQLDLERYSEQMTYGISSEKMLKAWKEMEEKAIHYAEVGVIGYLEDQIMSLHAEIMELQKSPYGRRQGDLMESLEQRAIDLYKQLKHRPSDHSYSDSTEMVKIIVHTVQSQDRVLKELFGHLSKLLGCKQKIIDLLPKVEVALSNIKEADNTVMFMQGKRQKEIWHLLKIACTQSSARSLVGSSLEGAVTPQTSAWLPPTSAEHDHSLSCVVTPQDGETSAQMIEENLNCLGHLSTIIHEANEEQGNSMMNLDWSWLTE
To be noted: IKK-alpha, 10 µM; read-out: score (%).

Test [3] addresses T3, KinomeScan kinase panel (Homo sapiens, UniProt P19525).
T3 construct: purchased DiscoveRx (KinomeScan)
As to conditions: 10 µM.

Test [4] concerns the target T4, KinomeScan kinase panel (Homo sapiens, UniProt P49761).
T4 construct: purchased DiscoveRx (KinomeScan)
To be noted: CLK3, 10 µM; read-out: score (%).

Test [5] deals with T5, KinomeScan kinase panel (Homo sapiens, UniProt P52564).
T5 construct: purchased DiscoveRx (KinomeScan)
T5 sequence (P52564 1-334): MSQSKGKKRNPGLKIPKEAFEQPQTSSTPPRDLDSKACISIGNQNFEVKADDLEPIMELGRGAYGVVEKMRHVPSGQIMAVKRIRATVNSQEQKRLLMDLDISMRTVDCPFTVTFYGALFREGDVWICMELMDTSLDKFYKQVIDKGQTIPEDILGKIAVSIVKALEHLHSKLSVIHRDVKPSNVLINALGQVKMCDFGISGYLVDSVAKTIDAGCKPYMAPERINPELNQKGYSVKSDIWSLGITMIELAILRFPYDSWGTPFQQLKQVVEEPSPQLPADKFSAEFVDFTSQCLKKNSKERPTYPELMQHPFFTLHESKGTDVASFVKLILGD
To be noted: MEK6, 10 µM; read-out: score (%).

Test [6] has as its target T6, KinomeScan kinase panel (Homo sapiens, UniProt Q13043).
T6 construct: purchased DiscoveRx (KinomeScan)
T6 sequence (Q13043 1-487): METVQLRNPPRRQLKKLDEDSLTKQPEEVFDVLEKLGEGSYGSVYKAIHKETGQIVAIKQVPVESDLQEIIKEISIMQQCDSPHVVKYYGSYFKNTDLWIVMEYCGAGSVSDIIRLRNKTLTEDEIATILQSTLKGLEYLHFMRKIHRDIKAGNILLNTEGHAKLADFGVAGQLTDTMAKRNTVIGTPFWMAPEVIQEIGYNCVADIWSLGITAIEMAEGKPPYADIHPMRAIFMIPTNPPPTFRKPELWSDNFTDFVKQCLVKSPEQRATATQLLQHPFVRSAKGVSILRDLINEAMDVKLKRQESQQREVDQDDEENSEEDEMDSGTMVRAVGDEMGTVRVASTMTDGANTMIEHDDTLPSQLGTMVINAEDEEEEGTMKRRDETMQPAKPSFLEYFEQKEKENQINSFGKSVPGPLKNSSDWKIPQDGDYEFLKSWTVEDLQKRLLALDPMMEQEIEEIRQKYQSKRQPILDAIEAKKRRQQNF
To be noted: MST1, 10 µM.

For test [7], the target named is T7, KinomeScan kinase panel (Homo sapiens, UniProt Q13188).
T7 construct: purchased DiscoveRx (KinomeScan)
T7 sequence (Q13188 1-491): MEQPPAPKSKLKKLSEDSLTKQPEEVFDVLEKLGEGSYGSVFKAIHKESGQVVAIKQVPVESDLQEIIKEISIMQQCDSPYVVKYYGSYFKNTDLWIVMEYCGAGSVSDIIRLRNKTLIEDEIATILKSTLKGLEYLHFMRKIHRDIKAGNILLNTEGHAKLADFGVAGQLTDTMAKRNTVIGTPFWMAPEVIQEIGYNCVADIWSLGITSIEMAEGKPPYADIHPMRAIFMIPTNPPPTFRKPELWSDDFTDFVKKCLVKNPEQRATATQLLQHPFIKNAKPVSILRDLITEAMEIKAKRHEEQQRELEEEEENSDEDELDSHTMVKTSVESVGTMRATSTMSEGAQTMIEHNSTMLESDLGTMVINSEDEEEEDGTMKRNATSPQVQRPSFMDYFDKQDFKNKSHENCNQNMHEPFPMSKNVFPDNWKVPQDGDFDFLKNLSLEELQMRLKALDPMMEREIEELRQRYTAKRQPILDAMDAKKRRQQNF
To be noted: MST2, 10 µM; read-out: score (%).

In test [8] the target is T8, KinomeScan kinase panel (Homo sapiens, UniProt Q9P2K8, S808G).
T8 construct: purchased DiscoveRx (KinomeScan)
T8 sequence (Q9P2K8 whole entry S808G): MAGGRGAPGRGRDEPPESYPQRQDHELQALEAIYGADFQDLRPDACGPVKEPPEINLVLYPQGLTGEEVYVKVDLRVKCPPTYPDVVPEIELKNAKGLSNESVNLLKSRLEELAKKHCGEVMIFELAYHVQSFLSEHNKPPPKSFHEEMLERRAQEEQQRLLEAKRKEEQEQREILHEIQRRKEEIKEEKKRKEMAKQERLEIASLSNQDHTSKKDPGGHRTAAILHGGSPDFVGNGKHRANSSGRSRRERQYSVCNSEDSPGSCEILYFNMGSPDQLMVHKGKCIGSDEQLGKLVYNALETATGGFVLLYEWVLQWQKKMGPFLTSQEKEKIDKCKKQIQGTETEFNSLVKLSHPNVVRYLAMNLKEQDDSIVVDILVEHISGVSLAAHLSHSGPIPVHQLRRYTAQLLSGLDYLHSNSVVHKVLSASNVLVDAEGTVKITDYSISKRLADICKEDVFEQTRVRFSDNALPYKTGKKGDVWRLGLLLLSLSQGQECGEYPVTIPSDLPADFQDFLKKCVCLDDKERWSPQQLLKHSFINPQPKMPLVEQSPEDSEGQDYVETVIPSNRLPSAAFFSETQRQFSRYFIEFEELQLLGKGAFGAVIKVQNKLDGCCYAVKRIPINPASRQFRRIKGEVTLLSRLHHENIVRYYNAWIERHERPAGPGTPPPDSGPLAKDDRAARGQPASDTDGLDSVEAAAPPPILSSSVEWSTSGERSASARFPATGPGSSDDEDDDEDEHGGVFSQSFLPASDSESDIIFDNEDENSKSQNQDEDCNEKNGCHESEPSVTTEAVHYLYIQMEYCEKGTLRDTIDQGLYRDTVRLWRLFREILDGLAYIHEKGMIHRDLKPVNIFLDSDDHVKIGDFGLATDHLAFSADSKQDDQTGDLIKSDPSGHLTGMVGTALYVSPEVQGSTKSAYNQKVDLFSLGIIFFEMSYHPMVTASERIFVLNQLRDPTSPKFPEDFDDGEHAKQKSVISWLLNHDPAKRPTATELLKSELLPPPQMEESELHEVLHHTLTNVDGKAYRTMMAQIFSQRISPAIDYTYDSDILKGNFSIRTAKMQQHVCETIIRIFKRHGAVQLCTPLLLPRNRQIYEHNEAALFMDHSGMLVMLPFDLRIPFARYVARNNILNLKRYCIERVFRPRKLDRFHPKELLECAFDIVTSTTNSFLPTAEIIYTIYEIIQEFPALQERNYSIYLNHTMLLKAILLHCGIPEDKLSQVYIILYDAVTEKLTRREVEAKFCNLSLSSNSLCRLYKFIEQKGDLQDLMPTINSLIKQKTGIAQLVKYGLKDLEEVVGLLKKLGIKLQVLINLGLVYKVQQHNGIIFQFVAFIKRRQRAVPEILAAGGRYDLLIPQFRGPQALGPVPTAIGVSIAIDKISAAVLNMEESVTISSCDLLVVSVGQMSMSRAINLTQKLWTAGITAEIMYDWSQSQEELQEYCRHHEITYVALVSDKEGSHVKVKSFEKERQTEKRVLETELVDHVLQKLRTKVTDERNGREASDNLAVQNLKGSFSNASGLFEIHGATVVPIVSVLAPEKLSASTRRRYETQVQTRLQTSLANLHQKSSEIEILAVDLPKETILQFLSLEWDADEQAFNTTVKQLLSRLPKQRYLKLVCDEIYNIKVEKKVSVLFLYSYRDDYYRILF
As to conditions: GCN2(Kin.Dom.2.S808G), 10 µM; read-out: score (%).

T4 sequence (P49761 whole entry): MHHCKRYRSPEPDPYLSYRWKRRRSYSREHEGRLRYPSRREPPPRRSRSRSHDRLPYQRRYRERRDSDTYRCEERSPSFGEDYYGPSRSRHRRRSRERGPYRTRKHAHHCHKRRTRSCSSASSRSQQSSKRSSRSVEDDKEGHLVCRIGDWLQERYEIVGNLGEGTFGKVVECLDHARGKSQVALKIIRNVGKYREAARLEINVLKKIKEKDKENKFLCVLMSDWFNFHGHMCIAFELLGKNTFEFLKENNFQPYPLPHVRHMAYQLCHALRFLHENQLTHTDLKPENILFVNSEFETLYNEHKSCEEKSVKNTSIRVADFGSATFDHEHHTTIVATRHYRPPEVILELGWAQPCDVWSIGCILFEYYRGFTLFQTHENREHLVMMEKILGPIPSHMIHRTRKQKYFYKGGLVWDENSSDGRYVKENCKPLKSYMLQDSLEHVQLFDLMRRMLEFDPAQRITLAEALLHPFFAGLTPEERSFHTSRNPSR
T3 sequence (P19525 whole entry): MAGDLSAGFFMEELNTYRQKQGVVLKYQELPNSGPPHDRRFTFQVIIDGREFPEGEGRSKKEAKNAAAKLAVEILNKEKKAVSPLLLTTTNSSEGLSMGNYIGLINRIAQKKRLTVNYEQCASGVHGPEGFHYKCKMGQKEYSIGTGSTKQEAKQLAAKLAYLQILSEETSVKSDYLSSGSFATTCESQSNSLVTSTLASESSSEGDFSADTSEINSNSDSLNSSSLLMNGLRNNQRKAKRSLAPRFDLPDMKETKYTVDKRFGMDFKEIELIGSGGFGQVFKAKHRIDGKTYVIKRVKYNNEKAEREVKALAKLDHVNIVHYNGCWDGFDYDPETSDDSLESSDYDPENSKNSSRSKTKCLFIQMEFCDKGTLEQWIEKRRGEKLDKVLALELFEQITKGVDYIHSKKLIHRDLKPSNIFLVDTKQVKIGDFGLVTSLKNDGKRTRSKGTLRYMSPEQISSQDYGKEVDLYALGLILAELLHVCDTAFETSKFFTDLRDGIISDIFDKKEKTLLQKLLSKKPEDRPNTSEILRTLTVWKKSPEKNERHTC

As for `CCN1CCN(Cc2ccc(NC(=O)c3ccc(C)c(NC(=O)c4cncc(-c5cccs5)c4)c3)cc2C(F)(F)F)CC1` [ALW-II-41-27], the remaining binding at 10 µM on KinomeScan kinase panel [1] (RIOK3, 10 µM) was greater than 30%; on KinomeScan kinase panel [2], 3.3%; at KinomeScan kinase panel [4] it was greater than 30%; on KinomeScan kinase panel [5], greater than 30%; at KinomeScan kinase panel [7], greater than 30%; at KinomeScan kinase panel [8], 0.3%. Also, the “score (%)” value at KinomeScan kinase panel [3] (PRKR) is “nb (Hits values higher than 30% were considered negative (no binding: nb))”; at KinomeScan kinase panel [6], 21%.

On to `CCN1CCN(Cc2ccc(NC(=O)c3ccc(C)c(/C=C/c4cnc5[nH]ccc5c4Cl)c3)cc2C(F)(F)F)CC1` [HG-6-63-01, (E)-3-(2-(4-chloro-1H-pyrrolo[2,3-b]pyridin-5-yl)vinyl)-N-(4-((4-ethylpiperazin-1-yl)methyl)-3-(trifluoromethyl)phenyl)-4-methylbenzamide], for which the remaining binding at 10 µM is 0.35% on KinomeScan kinase panel [1] (RIOK3, 10 µM); 0.75% on KinomeScan kinase panel [2]; greater than 30% on KinomeScan kinase panel [4]; greater than 30% on KinomeScan kinase panel [5]; 10% on KinomeScan kinase panel [7]; 0.95% at KinomeScan kinase panel [8]. The “score (%)” value was “nb (Hits values higher than 30% were considered negative (no binding: nb))” at KinomeScan kinase panel [3] (PRKR) and 26% at KinomeScan kinase panel [6].

On to `CCN1CCN(Cc2ccc(NC(=O)c3ccc(C)c(C#Cc4cccnc4)c3)cc2C(F)(F)F)CC1` [XMD15-44], for which the remaining binding at 10 µM at KinomeScan kinase panel [1] (kinase RIOK3, 10 µM) is 70%; on KinomeScan kinase panel [2], 0%; at KinomeScan kinase panel [4], greater than 30%; on KinomeScan kinase panel [5] it was greater than 30%; on KinomeScan kinase panel [7], greater than 30%; on KinomeScan kinase panel [8], 1.3%. Moreover, the “score (%)” value on KinomeScan kinase panel [3] (kinase PRKR) came out at 66%; on KinomeScan kinase panel [6], 23%.

(Values after PMC4457528, “Identification of Novel Small Molecule Inhibitors of Oncogenic RET Kinase” (PLoS ONE, 2015).)
